Tested on: AND1 PSC
Assay: Megakaryocyte precursor analysis (CD34+ and CD34+CD41a+) in EBs by flow cytometry
Type: cell-based, human
Conditions: wild-type AND1 PSCs, TSA 10 and 100 nM from start, day 14, vs DMSO
Method: The emergence of megakaryocyte precursor cells (CD34+ and CD34+ CD41a^+) during EB differentiation stages on days 10, 14 and 17 of differentiation was evaluated. One third of the EBs growing in a 6-well plate were collected and washed once with PBS. Similarly, to evaluate the effect of Trichostatin A (TSA) on differentiation, the EBs were treated with 10 nM or 100 nM of DMSO or TSA for 14 days. In both cases, the EBs were disassociated with collagenase B and disassociation buffer as described previously. A homogenous cell suspension was obtained after washing the EBs with PBS and being carefully resuspended in […] of PBS with 2% FCS and 2 mM of EDTA until no clumps were observed. The disassociated cells were stained with anti-CD34-PECy7 antibodies (Miltenyi Biotec,
Bergisch Gladbach, Germany) and anti-CD41 a-PE antibodies and 7AAD. Living cells identified by 7AAD exclusion were analyzed using a FACSCanto II flow cytometer.

## CC(/C=C/C(=O)NO)=C\[C@@H](C)C(=O)c1ccc(N(C)C)cc1 [Trichostatin A]
  CD34+ CD41+ megakaryocyte progenitors: accelerates the emergence of megakaryocyte progenitors
Listed as TSA
  CD34+ CD41+ megakaryocyte progenitors: increase

From patent US20160312185A1, “METHOD FOR PRODUCING MEGAKARYOCYTES AND PLATELETS” (FUNDACIÓN PÚBLICA ANDALUZA PROGRESO Y SALUD, priority 2013, published 2016)
